According to patent US20140045824A1, “METHOD FOR PRODUCING COMPLEX CRYSTAL AND METHOD FOR SCREENING COMPLEX CRYSTAL” (priority 2011, published 2014):

Tests used:
Assay type in all cases: physicochemical
[1] = Cocrystal screening by heat melting 1-menthol (Example 2), powder X-ray diffraction and thermal analysis; parameters: key: A cocrystal was completely formed.; B: A mixture of a cocrystal and the host compound or guest compound was formed.; C: A cocrystal was not formed (a mixture of the host compound and the guest compound was formed); details: host carbamazepine, equimolar guest, 1-menthol added, 10 hours at 80° C.
Method: Carbamazepine and a guest compound shown in Table 4 in an equimolar amount to carbamazepine were weighed and mixed using an agate mortar. […] Thereafter, the obtained mixed powder of carbamazepine, the guest compound, and 1-menthol was heated for 10 hours in an oven at 80° C., and the obtained solids were subjected to powder X-ray diffraction measurement and thermal analysis.

[2] = Cocrystal screening by slurry method (Comparative Examples 4-1 to 4-6), powder X-ray diffraction; parameters: key: A cocrystal was completely formed.; B: A mixture of a cocrystal and the host compound or guest compound was formed.; C: A cocrystal was not formed (a mixture of the host compound and the guest compound was formed); details: host carbamazepine
Method: (§1) 3 mg (0.0127 mmoles) of carbamazepine and a guest compound shown in Table 4 in an equimolar amount (0.0127 mmoles) to carbamazepine were weighed and put into a glass container, to which was then added 60 μL of water. These were shaken at room temperature for 7 days, and the obtained residues were subjected to powder X-ray diffraction measurement. 3 mg (0.0127 mmoles) of carbamazepine and a guest compound shown in Table 4 in an equimolar amount (0.0127 mmoles) to carbamazepine were weighed and put into a glass container, to which was then added 60 μL of ethanol. These were shaken at room temperature for 7 days, and the obtained residues were subjected to powder X-ray diffraction measurement. 3 mg (0.0127 mmoles) of carbamazepine and a guest compound shown in Table 4 in an equimolar amount (0.0127 mmoles) to carbamazepine were weighed and put into a glass container, to which was then added 60 μL of tetrahydrofuran. These were shaken at room temperature for 7 days, and the obtained residues were subjected to powder X-ray diffraction measurement. 3 mg (0.0127 mmoles) of carbamazepine and a guest compound shown in Table 4 in an equimolar amount (0.0127 mmoles) to carbamazepine were weighed and put into a glass container, to which was then added 60 μL of toluene. These were shaken at room temperature for 7 days, and the obtained residues were subjected to powder X-ray diffraction measurement. 3 mg (0.0127 mmoles) of carbamazepine and a guest compound shown in Table 4 in an equimolar amount (0.0127 mmoles) to carbamazepine were weighed and put into a glass container, to which was then added 60 μL of ethyl acetate. These were shaken at room temperature for 7 days, and the obtained residues were subjected to powder X-ray diffraction measurement. 3 mg (0.0127 mmoles) of carbamazepine and a guest compound shown in Table 4 in an equimolar amount (0.0127 mmoles) to carbamazepine were weighed and put into a glass container, to which was then added 60 μL of acetone. These were shaken at room temperature for 7 days, and the obtained residues were subjected to powder X-ray diffraction measurement.

[3] = Cocrystal screening by mixing and grinding method (Comparative Example 5); parameters: key: A cocrystal was completely formed.; B: A mixture of a cocrystal and the host compound or guest compound was formed.; C: A cocrystal was not formed (a mixture of the host compound and the guest compound was formed); details: host carbamazepine, equimolar guest, mixed/ground in agate mortar
Source text: (§2) Carbamazepine and a guest compound shown in Table 4 in an equimolar amount to carbamazepine were weighed and mixed using an agate mortar. At that time, particles having a large size to an extent that they could be distinguished through visual inspection were grinded on the agate mortar. The obtained solids were subjected to powder X-ray diffraction measurement and thermal analysis.

[4] = Cocrystal screening by heating method without menthol (Comparative Example 6); parameters: key: A cocrystal was completely formed.; B: A mixture of a cocrystal and the host compound or guest compound was formed.; C: A cocrystal was not formed (a mixture of the host compound and the guest compound was formed); details: host carbamazepine, equimolar guest, no menthol, 4 hours at 80° C.
Method: as §2, with “10 mg of this mixed powder was weighed and put into a test tube and heated for 4 hours in an oven at 80° C., and the” for “The”

[5] = Cocrystal screening by slurry method (Comparative Examples 4-1 to 4-6), powder X-ray diffraction; parameters: key: A cocrystal was completely formed.; B: A mixture of a cocrystal and the host compound or guest compound was formed.; C: A cocrystal was not formed (a mixture of the host compound and the guest compound was formed).; —: A residue was not obtained; details: host carbamazepine, slurry in tetrahydrofuran, room temperature 7 days
Method: as §1

O=C(O)CC(=O)O [Malonic acid]
Cocrystal formation, Example 2 [1]: A
Cocrystal formation, Comparative Example 4-6 ([2]; slurry in acetone, room temperature 7 days): C
Cocrystal formation, Comparative Example 4-2 ([2]; slurry in ethanol, room temperature 7 days): C
Cocrystal formation, Comparative Example 4-5 ([2]; slurry in ethyl acetate, room temperature 7 days): A
Cocrystal formation, Comparative Example 4-4 ([2]; slurry in toluene, room temperature 7 days): B
Cocrystal formation, Comparative Example 4-1 ([2]; slurry in water, room temperature 7 days): C
Cocrystal formation, Comparative Example 4* ([2]; slurry summary: A if a cocrystal was formed in any one of Comparative Examples 4-1 to 4-6): A
Cocrystal formation, Comparative Example 5 [3]: C
Cocrystal formation, Comparative Example 6 [4]: B
Cocrystal formation, Comparative Example 4-3 [5]: —
